The target of one assay is T1, CYP2C19 (Homo sapiens, UniProt P33261).
T1 construct: purchased Corning
The assay can be described thus: inhibition of cytochrome P450 isoform activity (fluorescence screening). It counts as biochemical. The conditions noted are these: screening at 1.1, 3.3 and 10 µM. As for the experimental part: (§1) The assays for cytochrome P450 inhibition facilitate the identification of drug candidates with a lower potential for drug-drug interactions. In vitro experiments conducted to determine whether a drug inhibits a specific CYP enzyme involve an incubation of the drug with probe substrates for the CYP enzymes.
(§2) Recombinant cytochrome P450 isoforms available for the assay: CYP1A2, CYP2B6, CYP2C9, CYP2C19, CYP2D6 and CYP3A4 isoform with various probe substrates enabling fluorescence detection.
(§3) The examined compound was prepared as a 10 mM stock solution in DMSO. The following three concentrations of the test compound were used for screening determination: 1.1, 3.3 and 10 μM. […] Plates filled with solution of cofactors (NADP, G6P, MgCl2, G6PDH) as well as examined compound were scanned with a fluorescence plate reader in order to eliminate false results originating from autofluorescence of the test compounds. […] At the end of the incubation, the reaction was stopped and the fluorescence of the product was determined continuously with the specific for every product excitation as well as emission values with the use of multiwell plate scanner equipped with fluorescence measurement (Fluorescence EnSpire Multimode Plate Reader).

The target of another assay is T2, CYP2C9 (Homo sapiens, UniProt P11712).
T2 construct: purchased Corning
T2 sequence (P11712 whole entry): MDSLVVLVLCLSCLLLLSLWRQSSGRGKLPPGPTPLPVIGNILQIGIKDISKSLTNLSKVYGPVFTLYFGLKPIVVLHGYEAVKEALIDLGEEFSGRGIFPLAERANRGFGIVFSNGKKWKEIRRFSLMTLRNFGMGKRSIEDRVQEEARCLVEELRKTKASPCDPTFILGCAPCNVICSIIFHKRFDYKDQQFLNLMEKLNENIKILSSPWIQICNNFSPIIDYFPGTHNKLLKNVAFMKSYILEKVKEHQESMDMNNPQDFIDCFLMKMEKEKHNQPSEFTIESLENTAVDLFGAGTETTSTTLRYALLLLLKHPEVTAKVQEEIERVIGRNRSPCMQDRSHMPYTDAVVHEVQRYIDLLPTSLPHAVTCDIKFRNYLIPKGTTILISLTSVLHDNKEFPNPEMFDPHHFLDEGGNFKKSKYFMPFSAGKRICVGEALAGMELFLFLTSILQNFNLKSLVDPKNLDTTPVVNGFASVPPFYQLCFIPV
Described as above. Format: biochemical. The conditions noted are these: screening at 1.1, 3.3 and 10 µM. As for the experimental part:
as §1, §2, §3

T1 sequence (P33261 whole entry): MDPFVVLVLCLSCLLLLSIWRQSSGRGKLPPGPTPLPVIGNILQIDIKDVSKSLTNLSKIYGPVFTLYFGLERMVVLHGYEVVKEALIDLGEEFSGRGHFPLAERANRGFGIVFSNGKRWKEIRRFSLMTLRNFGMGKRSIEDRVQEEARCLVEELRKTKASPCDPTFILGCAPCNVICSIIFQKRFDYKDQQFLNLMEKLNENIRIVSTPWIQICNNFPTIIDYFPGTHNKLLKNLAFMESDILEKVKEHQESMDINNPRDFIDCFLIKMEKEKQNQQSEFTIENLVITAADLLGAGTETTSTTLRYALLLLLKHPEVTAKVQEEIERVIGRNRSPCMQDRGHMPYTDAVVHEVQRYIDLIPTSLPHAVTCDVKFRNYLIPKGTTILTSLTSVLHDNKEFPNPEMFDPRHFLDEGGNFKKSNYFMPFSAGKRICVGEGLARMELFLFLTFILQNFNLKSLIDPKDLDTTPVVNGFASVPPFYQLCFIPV

Consider `O=C(Nc1ccc(-c2noc(-c3ccccc3Cl)n2)c(Cl)c1)c1ccccn1` [Compound 52, N-(3-chloro-4-(5-(2-chlorophenyl)-1,2,4-oxadiazol-3-yl)phenyl)picolinamide], for which the IC50 on CYP2C19 and against CYP2C9 was 3.3 to 10 µM each time.

The values above are taken from paper PMC8667925, “New 1,2,4-oxadiazole derivatives with positive mGlu4 receptor modulation activity and antipsychotic-like properties” (Journal of Enzyme Inhibition and Medicinal Chemistry, 2021).
